The numbers were not newly measured in US7807833B2, “Method for total synthesis of ecteinascidins and intermediate compounds thereof” (Japan Science and Technology Agency, priority 2002, dated 2010), which cites them from elsewhere.

For this series, the system named is cancer cells.

`COc1cc2c(cc1O)CCN[C@]21CS[C@@H]2c3c(OC(C)=O)c(C)c4c(c3[C@H](COC1=O)N1[C@@H]2[C@H]2c3c(cc(C)c(OC)c3O)C[C@@H]([C@@H]1O)N2C)OCO4` [Et 743, ecteinascidin 743]: the IC50 (background statement, cell lines not named, read-out: IC50, depressing the proliferation of cancer cells) was 0.1 to 1 nM. Where the note is “relative to currently used carcinostatic agents”, the “times more potent than Toxol, Camptotesin, Adriamycin or Mitomycin in depressing the proliferation of cancer cells” value was 10 to 100 times. Turning to `COc1c(C)cc2c(c1O)[C@@H]1[C@@H]3Cc4c(OC(C)=O)c(C)c5c(c4[C@H](CN4C(=O)c6ccccc6C4=O)N3[C@@H](C#N)[C@H](C2)N1C)OCO5` [phthalascidin], the “antineoplastic activity compared with ET 743” value (qualitative background statement) is listed as “same activity to ET 743”.
